Test results published in the NIST ThermoML archive (doi:10.1016/j.fluid.2008.03.004).
Numbers after ± are expanded uncertainties.

Assay: xn = mol fraction of the nth substance listed
Details: 101 kPa, Liquid; for speed of sound: Sing-around technique in a fixed-path interferometer

Cc1ccccc1C [1,2-dimethylbenzene] + COC(C)(C)C
Details | mass density [kg/m3] | speed of sound [m/s]
288.15 K, x2 = 0 | 883.36 ± 0.35 | 1381.3 ± 2.2
288.15 K, x2 = 0.052 | 876.722 ± 0.38 | 1374.2 ± 2.2
288.15 K, x2 = 0.101 | 870.811 ± 0.39 | 1361.2 ± 2.2
288.15 K, x2 = 0.203 | 857.652 ± 0.41 | 1332.7 ± 2.2
288.15 K, x2 = 0.303 | 844.603 ± 0.42 | 1302.7 ± 2.2
288.15 K, x2 = 0.401 | 831.766 ± 0.44 | 1274.2 ± 2.2
288.15 K, x2 = 0.499 | 818.201 ± 0.46 | 1243.3 ± 2.2
288.15 K, x2 = 0.604 | 803.537 ± 0.49 | 1212.8 ± 2.2
288.15 K, x2 = 0.707 | 788.841 ± 0.51 | 1179 ± 2.2
288.15 K, x2 = 0.8 | 775.294 ± 0.53 | 1148.4 ± 2.2
288.15 K, x2 = 0.9 | 760.339 ± 0.55 | 1119.5 ± 2.2
288.15 K, x2 = 0.95 | 752.593 ± 0.56 | 1099.1 ± 2.2
290.65 K, x2 = 0 | 881.265 ± 0.35 | 1371.8 ± 2.2
290.65 K, x2 = 0.052 | 874.606 ± 0.38 | 1364.9 ± 2.2
290.65 K, x2 = 0.101 | 868.675 ± 0.39 | 1350.7 ± 2.2
290.65 K, x2 = 0.203 | 855.478 ± 0.41 | 1322.1 ± 2.2
290.65 K, x2 = 0.303 | 842.386 ± 0.43 | 1292 ± 2.2
290.65 K, x2 = 0.401 | 829.505 ± 0.45 | 1263.3 ± 2.2
290.65 K, x2 = 0.499 | 815.897 ± 0.47 | 1232.4 ± 2.2
290.65 K, x2 = 0.604 | 801.177 ± 0.49 | 1201.5 ± 2.2
290.65 K, x2 = 0.707 | 786.421 ± 0.51 | 1167.7 ± 2.2
290.65 K, x2 = 0.8 | 772.825 ± 0.53 | 1136.8 ± 2.2
290.65 K, x2 = 0.9 | 757.801 ± 0.55 | 1107.9 ± 2.2
290.65 K, x2 = 0.95 | 750.025 ± 0.57 | 1087.4 ± 2.2
293.15 K, x2 = 0 | 879.168 ± 0.35 | 1362.2 ± 2.2
293.15 K, x2 = 0.052 | 872.486 ± 0.38 | 1354.8 ± 2.2
293.15 K, x2 = 0.101 | 866.535 ± 0.39 | 1340.3 ± 2.2
293.15 K, x2 = 0.203 | 853.3 ± 0.41 | 1311.6 ± 2.2
293.15 K, x2 = 0.303 | 840.168 ± 0.43 | 1281.4 ± 2.2
293.15 K, x2 = 0.401 | 827.242 ± 0.45 | 1252.5 ± 2.2
293.15 K, x2 = 0.499 | 813.586 ± 0.47 | 1221.6 ± 2.2
293.15 K, x2 = 0.604 | 798.814 ± 0.49 | 1190.3 ± 2.2
293.15 K, x2 = 0.707 | 783.998 ± 0.52 | 1156.6 ± 2.2
293.15 K, x2 = 0.8 | 770.35 ± 0.54 | 1125.5 ± 2.2
293.15 K, x2 = 0.9 | 755.264 ± 0.56 | 1096.5 ± 2.2
293.15 K, x2 = 0.95 | 747.451 ± 0.57 | 1075.9 ± 2.2
295.65 K, x2 = 0 | 877.069 ± 0.36 | 1351.8 ± 2.2
295.65 K, x2 = 0.052 | 870.364 ± 0.39 | 1344.5 ± 2.2
295.65 K, x2 = 0.101 | 864.394 ± 0.4 | 1329.8 ± 2.2
295.65 K, x2 = 0.203 | 851.12 ± 0.41 | 1301.1 ± 2.2
295.65 K, x2 = 0.303 | 837.944 ± 0.43 | 1270.7 ± 2.2
295.65 K, x2 = 0.401 | 824.973 ± 0.45 | 1241.8 ± 2.2
295.65 K, x2 = 0.499 | 811.273 ± 0.47 | 1210.7 ± 2.2
295.65 K, x2 = 0.604 | 796.444 ± 0.5 | 1179.3 ± 2.2
295.65 K, x2 = 0.707 | 781.567 ± 0.52 | 1145.4 ± 2.2
295.65 K, x2 = 0.8 | 767.869 ± 0.54 | 1114.1 ± 2.2
295.65 K, x2 = 0.9 | 752.717 ± 0.56 | 1085.1 ± 2.2
295.65 K, x2 = 0.95 | 744.871 ± 0.57 | 1064.4 ± 2.2
298.15 K, x2 = 0 | 874.968 ± 0.36 | 1341.5 ± 2.2
298.15 K, x2 = 0.052 | 868.242 ± 0.39 | 1334.2 ± 2.2
298.15 K, x2 = 0.101 | 862.253 ± 0.4 | 1319.6 ± 2.2
298.15 K, x2 = 0.203 | 848.937 ± 0.42 | 1290.6 ± 2.2
298.15 K, x2 = 0.303 | 835.714 ± 0.44 | 1260.1 ± 2.2
298.15 K, x2 = 0.401 | 822.702 ± 0.46 | 1231.1 ± 2.2
298.15 K, x2 = 0.499 | 808.953 ± 0.48 | 1199.9 ± 2.2
298.15 K, x2 = 0.604 | 794.069 ± 0.5 | 1168.2 ± 2.2
298.15 K, x2 = 0.707 | 779.131 ± 0.52 | 1134.3 ± 2.2
298.15 K, x2 = 0.8 | 765.379 ± 0.54 | 1102.7 ± 2.2
298.15 K, x2 = 0.9 | 750.16 ± 0.57 | 1073.7 ± 2.2
298.15 K, x2 = 0.95 | 742.284 ± 0.58 | 1052.9 ± 2.2
300.65 K, x2 = 0 | 872.865 ± 0.36 | 1331.2 ± 2.2
300.65 K, x2 = 0.052 | 866.116 ± 0.39 | 1323.9 ± 2.2
300.65 K, x2 = 0.101 | 860.108 ± 0.4 | 1309.4 ± 2.2
300.65 K, x2 = 0.203 | 846.749 ± 0.42 | 1280.2 ± 2.2
300.65 K, x2 = 0.303 | 833.484 ± 0.44 | 1249.6 ± 2.2
300.65 K, x2 = 0.401 | 820.426 ± 0.46 | 1220.3 ± 2.2
300.65 K, x2 = 0.499 | 806.626 ± 0.48 | 1189.1 ± 2.2
300.65 K, x2 = 0.604 | 791.685 ± 0.5 | 1157.2 ± 2.2
300.65 K, x2 = 0.707 | 776.688 ± 0.53 | 1123.2 ± 2.2
300.65 K, x2 = 0.8 | 762.882 ± 0.55 | 1091.4 ± 2.2
300.65 K, x2 = 0.9 | 747.591 ± 0.57 | 1062.2 ± 2.2
300.65 K, x2 = 0.95 | 739.686 ± 0.58 | 1041.5 ± 2.2
303.15 K, x2 = 0 | 870.759 ± 0.36 | 1321 ± 2.2
303.15 K, x2 = 0.052 | 863.985 ± 0.4 | 1313.7 ± 2.2
303.15 K, x2 = 0.101 | 857.959 ± 0.41 | 1299.2 ± 2.2
303.15 K, x2 = 0.203 | 844.558 ± 0.42 | 1269.8 ± 2.2
303.15 K, x2 = 0.303 | 831.25 ± 0.44 | 1239.1 ± 2.2
303.15 K, x2 = 0.401 | 818.144 ± 0.46 | 1209.7 ± 2.2
303.15 K, x2 = 0.499 | 804.296 ± 0.48 | 1178.4 ± 2.2
303.15 K, x2 = 0.604 | 789.298 ± 0.51 | 1146.3 ± 2.2
303.15 K, x2 = 0.707 | 774.237 ± 0.53 | 1112.1 ± 2.2
303.15 K, x2 = 0.8 | 760.378 ± 0.55 | 1080.2 ± 2.2
303.15 K, x2 = 0.9 | 745.002 ± 0.57 | 1050.7 ± 2.2
303.15 K, x2 = 0.95 | 737.076 ± 0.59 | 1030 ± 2.2
305.65 K, x2 = 0 | – | 1310.8 ± 2.2
305.65 K, x2 = 0.052 | – | 1303.6 ± 2.2
305.65 K, x2 = 0.101 | – | 1289 ± 2.2
305.65 K, x2 = 0.203 | – | 1259.5 ± 2.2
305.65 K, x2 = 0.303 | – | 1228.6 ± 2.2
305.65 K, x2 = 0.401 | – | 1199 ± 2.2
305.65 K, x2 = 0.499 | – | 1167.7 ± 2.2
305.65 K, x2 = 0.604 | – | 1135.3 ± 2.2
305.65 K, x2 = 0.707 | – | 1101 ± 2.2
305.65 K, x2 = 0.8 | – | 1069 ± 2.2
305.65 K, x2 = 0.9 | – | 1038.7 ± 2.2
305.65 K, x2 = 0.95 | – | 1018.6 ± 2.2
